Tests used:
Plasma [1] = experiment: Drug level in human plasma assessed as compound formation treated with [14C]brivanib alaninate at 800 mg, po administered as single dose via gavage measured after 12 hrs by HPLC analysis; format: ADME, organism-based; conditions: in vivo
[2] = Drug excretion in bile duct-cannulated cynomolgus monkey bile treated with [14C]brivanib alaninate at 10 mg/kg, po administered as single dose via gavage by HPLC analysis; format: ADME, organism-based, Macaca fascicularis; conditions: in vivo
[3] = Drug excretion in Sprague-Dawley rat feces treated with [14C]brivanib alaninate at 100 mg/kg, po administered as single dose via gavage by HPLC analysis; format: ADME, organism-based; conditions: in vivo
[4] = target: Vascular endothelial growth factor receptor 2 (Homo sapiens, UniProt P35968); experiment: Inhibition of human recombinant VEGFR-2
Plasma [5] = experiment: Drug level in human plasma assessed as compound formation treated with [14C]brivanib alaninate at 800 mg, po administered as single dose via gavage measured after 8 hrs by HPLC analysis; format: ADME, organism-based; conditions: in vivo
Plasma [6] = experiment: Drug level in Sprague-Dawley rat plasma assessed as compound formation treated with [14C]brivanib alaninate at 100 mg/kg, po administered as single dose via gavage measured after 1 hr by HPLC analysis; format: ADME, organism-based; conditions: in vivo
Rattus norvegicus [7] = experiment: Drug uptake in Sprague-Dawley rat plasma treated with [14C]brivanib alaninate assessed as AUC (0 to 6 hrs) of total radio activity at 100 mg/kg, po administered as single oral dose by HPLC analysis; format: ADME, organism-based; conditions: in vivo
Homo sapiens [8] = experiment: Drug uptake in human plasma treated with [14C]brivanib alaninate assessed as AUC (0 to 12 hrs) of total radio activity at 800 mg, po administered as single oral dose by HPLC analysis; format: ADME, organism-based; conditions: in vivo
Plasma [9] = experiment: Drug level in human plasma assessed as compound formation treated with [14C]brivanib alaninate at 800 mg, po administered as single dose via gavage measured after 1 hr by HPLC analysis; format: ADME, organism-based; conditions: in vivo
Cynomolgus monkey [10] = experiment: Drug uptake in cynomolgus monkey plasma treated with [14C]brivanib alaninate assessed as AUC (0 to 4 hrs) of total radio activity at 10 mg/kg, po administered as single oral dose by HPLC analysis; format: ADME, organism-based, Macaca fascicularis; conditions: in vivo
Plasma [11] = experiment: Drug level in cynomolgus monkey plasma assessed as compound formation treated with [14C]brivanib alaninate at 10 mg/kg, po administered as single dose via gavage measured after 6 hrs by HPLC analysis; format: ADME, organism-based, Macaca fascicularis; conditions: in vivo
[12] = Drug excretion in cynomolgus monkey feces treated with [14C]brivanib alaninate at 10 mg/kg, po administered as single dose via gavage by HPLC analysis; format: ADME, organism-based, Macaca fascicularis; conditions: in vivo
Plasma [13] = experiment: Drug level in cynomolgus monkey plasma assessed as compound formation treated with [14C]brivanib alaninate at 10 mg/kg, po administered as single dose via gavage measured after 2 hrs by HPLC analysis; format: ADME, organism-based, Macaca fascicularis; conditions: in vivo
Plasma [14] = experiment: Drug level in cynomolgus monkey plasma assessed as compound formation treated with [14C]brivanib alaninate at 10 mg/kg, po administered as single dose via gavage measured after 1 hr by HPLC analysis; format: ADME, organism-based, Macaca fascicularis; conditions: in vivo
[15] = Drug excretion in bile duct-cannulated rat bile treated with [14C]brivanib alaninate at 100 mg/kg, po administered as single dose via gavage by HPLC analysis; format: ADME, organism-based; conditions: in vivo
Plasma [16] = experiment: Drug level in Sprague-Dawley rat plasma assessed as compound formation treated with [14C]brivanib alaninate at 100 mg/kg, po administered as single dose via gavage measured after 2 hrs by HPLC analysis; format: ADME, organism-based; conditions: in vivo
Plasma [17] = experiment: Drug level in cynomolgus monkey plasma assessed as compound formation treated with [14C]brivanib alaninate at 10 mg/kg, po administered as single dose via gavage measured after 4 hrs by HPLC analysis; format: ADME, organism-based, Macaca fascicularis; conditions: in vivo
Rattus norvegicus [18] = experiment: AUC (0 to 6 hrs) Sprague-Dawley rat plasma treated with [14C]brivanib alaninate at 100 mg/kg, po administered as single oral dose by HPLC analysis; format: ADME, organism-based; conditions: in vivo
[19] = Drug excretion in Sprague-Dawley rat urine treated with [14C]brivanib alaninate at 100 mg/kg, po administered as single dose via gavage by HPLC analysis; format: ADME, organism-based; conditions: in vivo
Cynomolgus monkey [20] = experiment: AUC (0 to 4 hrs) cynomolgus monkey plasma treated with [14C]brivanib alaninate at 10 mg/kg, po administered as single oral dose by HPLC analysis; format: ADME, organism-based, Macaca fascicularis; conditions: in vivo
Plasma [21] = experiment: Drug level in human plasma assessed as compound formation treated with [14C]brivanib alaninate at 800 mg, po administered as single dose via gavage measured after 4 hrs by HPLC analysis; format: ADME, organism-based; conditions: in vivo
[22] = Drug excretion in human feces treated with [14C]brivanib alaninate at 800 mg, po administered as single dose […] by HPLC analysis; format: ADME, organism-based; conditions: in vivo
Plasma [23] = experiment: Drug level in human plasma assessed as compound formation treated with [14C]brivanib alaninate at 800 mg, po administered as single dose via gavage measured after 2 hrs by HPLC analysis; format: ADME, organism-based; conditions: in vivo
[24] = Drug excretion in human urine treated with [14C]brivanib alaninate at 800 mg, po administered as single dose […] by HPLC analysis; format: ADME, organism-based; conditions: in vivo
Plasma [25] = experiment: Drug level in Sprague-Dawley rat plasma assessed as compound formation treated with [14C]brivanib alaninate at 100 mg/kg, po administered as single dose via gavage measured after 6 hrs by HPLC analysis; format: ADME, organism-based; conditions: in vivo
[26] = target: Fibroblast growth factor receptor 1 (Homo sapiens, UniProt P11362); experiment: Inhibition of human recombinant FGFR-1
Homo sapiens [27] = experiment: AUC (0 to 12 hrs) human plasma treated with [14C]brivanib alaninate at 800 mg, po administered as single oral dose by HPLC analysis; format: ADME, organism-based; conditions: in vivo
Plasma [28] = experiment: Drug level in cynomolgus monkey plasma assessed as compound formation treated with [14C]brivanib alaninate at 10 mg/kg, po administered as single dose via gavage measured after 12 hrs by HPLC analysis; format: ADME, organism-based, Macaca fascicularis; conditions: in vivo
[29] = Drug level in cynomolgus monkey urine treated with [14C]brivanib alaninate at 10 mg/kg, po administered as single dose via gavage by mass spectrometry; format: ADME, organism-based, Macaca fascicularis; conditions: in vivo
Cynomolgus monkey [30] = experiment: Tmax in cynomolgus monkey plasma treated with [14C]brivanib alaninate at 10 mg/kg, po administered as single dose via gavage by LC-MS/MS analysis; format: ADME, organism-based, Macaca fascicularis; conditions: in vivo
Rattus norvegicus [31] = experiment: AUC (0 to t) in Sprague-Dawley rat plasma treated with [14C]brivanib alaninate at 100 mg/kg, po administered as single dose via gavage by LC-MS/MS analysis; format: ADME, organism-based; conditions: in vivo
[32] = Drug excretion in cynomolgus monkey urine treated with [14C]brivanib alaninate at 10 mg/kg, po administered as single dose via gavage by HPLC analysis; format: ADME, organism-based, Macaca fascicularis; conditions: in vivo
Cynomolgus monkey [33] = experiment: AUC (0 to t) in cynomolgus monkey plasma treated with [14C]brivanib alaninate at 10 mg/kg, po administered as single dose via gavage by LC-MS/MS analysis; format: ADME, organism-based, Macaca fascicularis; conditions: in vivo
Homo sapiens [34] = experiment: Tmax in human plasma treated with [14C]brivanib alaninate at 800 mg, po administered as single dose […] by LC-MS/MS analysis; format: ADME, organism-based; conditions: in vivo
Liver microsome = experiment: Drug metabolism in human liver microsomes assessed as (R)-1-(4-(4-fluoro-2-(hydroxymethyl)-1H-indol-5-yloxy)-5-methylpyrrolo[1,2-f][1,2,4]triazin-6-yloxy)propan-2-ol formation by LC-MS/MS analysis in presence of NADPH; format: ADME
Homo sapiens [35] = experiment: AUC (0 to t) in human plasma treated with [14C]brivanib alaninate at 800 mg, po administered as single dose […] by LC-MS/MS analysis; format: ADME, organism-based; conditions: in vivo
Cynomolgus monkey [36] = experiment: Drug uptake in cynomolgus monkey plasma treated with [14C]brivanib alaninate assessed as AUC (0 to 12 hrs) of total radio activity at 10 mg/kg, po administered as single oral dose by HPLC analysis; format: ADME, organism-based, Macaca fascicularis; conditions: in vivo
Rattus norvegicus [37] = experiment: Cmax in Sprague-Dawley rat plasma treated with [14C]brivanib alaninate at 100 mg/kg, po administered as single dose via gavage by LC-MS/MS analysis; format: ADME, organism-based; conditions: in vivo
Homo sapiens [38] = experiment: Cmax in human plasma treated with [14C]brivanib alaninate at 800 mg, po administered as single dose […] by LC-MS/MS analysis; format: ADME, organism-based; conditions: in vivo
Cynomolgus monkey [39] = experiment: Cmax in cynomolgus monkey plasma treated with [14C]brivanib alaninate at 10 mg/kg, po administered as single dose via gavage by LC-MS/MS analysis; format: ADME, organism-based, Macaca fascicularis; conditions: in vivo
Rattus norvegicus [40] = experiment: Tmax in Sprague-Dawley rat plasma treated with [14C]brivanib alaninate at 100 mg/kg, po administered as single dose via gavage by LC-MS/MS analysis; format: ADME, organism-based; conditions: in vivo
Cynomolgus monkey [41] = experiment: AUC (0 to 12 hrs) cynomolgus monkey plasma treated with [14C]brivanib alaninate at 10 mg/kg, po administered as single oral dose by HPLC analysis; format: ADME, organism-based, Macaca fascicularis; conditions: in vivo

Chain of Fibroblast growth factor receptor 1 (P11362 whole entry): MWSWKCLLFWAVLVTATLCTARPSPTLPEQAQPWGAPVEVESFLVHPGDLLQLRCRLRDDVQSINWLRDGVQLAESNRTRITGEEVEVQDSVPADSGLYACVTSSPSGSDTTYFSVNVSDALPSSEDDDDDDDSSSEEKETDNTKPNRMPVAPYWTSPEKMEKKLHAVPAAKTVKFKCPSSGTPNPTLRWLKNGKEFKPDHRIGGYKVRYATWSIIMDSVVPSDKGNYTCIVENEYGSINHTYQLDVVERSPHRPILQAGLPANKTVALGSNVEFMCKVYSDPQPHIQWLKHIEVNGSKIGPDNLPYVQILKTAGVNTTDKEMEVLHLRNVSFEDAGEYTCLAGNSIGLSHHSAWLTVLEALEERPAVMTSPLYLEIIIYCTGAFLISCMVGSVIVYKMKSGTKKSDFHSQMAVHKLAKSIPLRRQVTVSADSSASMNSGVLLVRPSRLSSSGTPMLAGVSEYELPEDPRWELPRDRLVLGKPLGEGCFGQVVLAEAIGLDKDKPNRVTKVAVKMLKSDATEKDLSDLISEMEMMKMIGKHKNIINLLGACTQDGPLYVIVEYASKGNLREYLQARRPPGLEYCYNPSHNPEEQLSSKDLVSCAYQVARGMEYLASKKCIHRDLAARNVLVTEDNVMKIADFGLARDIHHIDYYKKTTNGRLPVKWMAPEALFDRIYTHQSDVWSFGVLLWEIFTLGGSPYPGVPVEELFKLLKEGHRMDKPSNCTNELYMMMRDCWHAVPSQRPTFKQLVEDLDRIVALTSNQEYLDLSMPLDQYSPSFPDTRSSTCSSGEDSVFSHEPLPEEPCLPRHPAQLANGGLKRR
Chain of Vascular endothelial growth factor receptor 2 (P35968 whole entry): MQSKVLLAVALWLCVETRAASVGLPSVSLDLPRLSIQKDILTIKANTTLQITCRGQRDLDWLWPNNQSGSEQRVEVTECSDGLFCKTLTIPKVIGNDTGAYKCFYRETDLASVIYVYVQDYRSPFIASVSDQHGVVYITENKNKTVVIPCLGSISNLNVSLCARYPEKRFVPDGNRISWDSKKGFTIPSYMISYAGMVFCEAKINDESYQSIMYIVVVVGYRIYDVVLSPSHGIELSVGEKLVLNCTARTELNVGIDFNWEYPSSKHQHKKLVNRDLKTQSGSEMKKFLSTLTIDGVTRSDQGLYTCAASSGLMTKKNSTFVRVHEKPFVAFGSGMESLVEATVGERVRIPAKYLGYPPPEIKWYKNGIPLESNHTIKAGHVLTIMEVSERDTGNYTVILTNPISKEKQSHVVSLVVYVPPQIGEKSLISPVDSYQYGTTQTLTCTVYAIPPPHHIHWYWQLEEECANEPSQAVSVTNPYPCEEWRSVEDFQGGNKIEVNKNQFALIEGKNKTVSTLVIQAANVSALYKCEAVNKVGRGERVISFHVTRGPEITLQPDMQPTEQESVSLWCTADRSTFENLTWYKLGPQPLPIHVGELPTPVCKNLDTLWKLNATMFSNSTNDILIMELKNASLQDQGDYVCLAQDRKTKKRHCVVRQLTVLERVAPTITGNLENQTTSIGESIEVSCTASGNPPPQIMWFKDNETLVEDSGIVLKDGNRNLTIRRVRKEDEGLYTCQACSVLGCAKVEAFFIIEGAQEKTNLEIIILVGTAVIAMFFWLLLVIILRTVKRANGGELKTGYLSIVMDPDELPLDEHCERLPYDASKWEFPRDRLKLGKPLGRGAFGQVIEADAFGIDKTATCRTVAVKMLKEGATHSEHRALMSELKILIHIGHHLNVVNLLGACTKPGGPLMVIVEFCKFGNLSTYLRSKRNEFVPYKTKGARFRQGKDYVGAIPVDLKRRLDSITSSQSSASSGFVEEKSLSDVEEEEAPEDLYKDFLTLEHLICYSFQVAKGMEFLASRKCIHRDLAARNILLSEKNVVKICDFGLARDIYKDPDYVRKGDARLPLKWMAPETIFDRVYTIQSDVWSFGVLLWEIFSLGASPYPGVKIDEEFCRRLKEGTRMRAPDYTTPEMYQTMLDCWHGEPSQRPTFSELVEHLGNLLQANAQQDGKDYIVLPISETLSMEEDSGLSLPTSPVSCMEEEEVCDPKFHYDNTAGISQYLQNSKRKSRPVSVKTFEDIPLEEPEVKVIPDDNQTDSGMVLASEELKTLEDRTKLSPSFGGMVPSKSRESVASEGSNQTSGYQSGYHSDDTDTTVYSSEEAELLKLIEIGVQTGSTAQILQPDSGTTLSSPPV

| Compound recovery (Plasma [1]) [%] | Compound recovery [2] | Compound recovery [3] [%] | Compound recovery (Plasma [5]) [%] | Compound recovery (Plasma [6]) [%] | AUC metabolite/AUC radiolabel (Rattus norvegicus [7]) [%] | AUC metabolite/AUC radiolabel (Homo sapiens [8]) [%] | Compound recovery (Plasma [9]) | Compound recovery (Plasma [11]) | Compound recovery [12] [%] | Compound recovery (Plasma [13]) [%] | Compound recovery (Plasma [14]) [%] | Compound recovery [15] | Compound recovery (Plasma [16]) [%] | Compound recovery (Plasma [17]) [%] | AUC (Rattus norvegicus [18]) [ugequiv/l.hr] | Compound recovery [19] | Compound recovery (Plasma [21]) [%] | Compound recovery [22] [%] | Compound recovery (Plasma [23]) [%] | SMILES | other results |
| --- | --- | --- | --- | --- | --- | --- | --- | --- | --- | --- | --- | --- | --- | --- | --- | --- | --- | --- | --- | --- | --- |
| 10.8 | 15.2% | 3.5 | 9.8 | 0.5 | 1.2 | 5.5 | metabolite_not_detected | metabolite_not_detected | 35.2 | 1 | 1.9 | 2.1% | 1.3 | 1.3 | 1628.2 | 0.8% | 3.6 | 26.2 | 2.3 | Cc1cc2c(F)c(Oc3ncnn4cc(OC[C@@H](C)OS(=O)(=O)O)c(C)c34)ccc2[nH]1 | IC50 [4]: 28 nM; AUC metabolite/AUC radiolabel (Cynomolgus monkey [10]): 1.1%; AUC (Cynomolgus monkey [20]): 755.8 ugequiv/l.hr; Compound recovery [24]: metabolite_not_detected; Compound recovery (Plasma [25]): 1.5%; IC50 [26]: 26 nM; AUC (Homo sapiens [27]): 3611.4 ugequiv/l.hr; Compound recovery (Plasma [28]): metabolite_not_detected; Compound recovery [29]: metabolite_detected |
| 38 | metabolite_not_detected | 1.8 | 46.7 | 22 | 17 | 46.1 | 72.4% | 60.8% | 6.5 | 62.7 | 70.7 | metabolite_not_detected | 15.8 | 44.2 | 23709.8 | metabolite_not_detected | 57.1 | 7.5 | 56.9 | Cc1cc2c(F)c(Oc3ncnn4cc(OC[C@@H](C)O)c(C)c34)ccc2[nH]1 [BRIVANIB] | Tmax (Cynomolgus monkey [30]): 2 h; AUCt (Rattus norvegicus [31]): 35500 ng·h/mL; Compound recovery [32]: metabolite_not_detected; AUCt (Cynomolgus monkey [33]): 49000 ng·h/mL; Tmax (Homo sapiens [34]): 1 h; Compound recovery (Liver microsome): metabolite_detected; AUCt (Homo sapiens [35]): 45900 ng·h/mL; AUC metabolite/AUC radiolabel (Cynomolgus monkey [36]): 61.4%; Cmax (Rattus norvegicus [37]): 6400 ng/mL; Cmax (Homo sapiens [38]): 6100 ng/mL; Compound recovery [24]: metabolite_not_detected; Cmax (Cynomolgus monkey [39]): 6200 ng/mL; Compound recovery (Plasma [25]): 14.3%; AUC (Homo sapiens [27]): 30257.7 ugequiv/l.hr; Compound recovery (Plasma [28]): 71.9%; Tmax (Rattus norvegicus [40]): 1 h; AUC (Cynomolgus monkey [41]): 42587.2 ugequiv/l.hr |

Source: ChEMBL document CHEMBL3526109 (Drug Metab Dispos, 2011)
